Measured values as given in US12187709B2 (Genentech, Inc., priority 2021, dated 2025).

Tests used:
c-Cbl = c-Cbl (Homo sapiens (Human), UniProt P22681); experiment: C-Cbl LCK Ub TR-FRET assay (C-cbl Lck HTRF); assay type: biochemical
Outline: (§1)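 Signal is read once the detection mix has stood 20 min at ambient temperature. Curves are anchored by DMSO as maximum and by omission of LCK as minimum.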

Cbl-b = Cbl-b (Homo sapiens (Human), UniProt Q13191); experiment: Cbl-b LCK Ub TR-FRET assay (Cbl-b Lck HTRF); assay type: biochemical; settings: for IC50: Cbl-b LCK Ub TR-FRET; for fold-selectivity (Cbl-b over C-cbl) / (fold-selectivity) Cbl-b and C-Cbl Selectivity: ratio C-cbl Lck HTRF IC50 / Cbl-b Lck HTRF IC50
Outline: as §1

Sequence of Cbl-b (Q13191 40-426): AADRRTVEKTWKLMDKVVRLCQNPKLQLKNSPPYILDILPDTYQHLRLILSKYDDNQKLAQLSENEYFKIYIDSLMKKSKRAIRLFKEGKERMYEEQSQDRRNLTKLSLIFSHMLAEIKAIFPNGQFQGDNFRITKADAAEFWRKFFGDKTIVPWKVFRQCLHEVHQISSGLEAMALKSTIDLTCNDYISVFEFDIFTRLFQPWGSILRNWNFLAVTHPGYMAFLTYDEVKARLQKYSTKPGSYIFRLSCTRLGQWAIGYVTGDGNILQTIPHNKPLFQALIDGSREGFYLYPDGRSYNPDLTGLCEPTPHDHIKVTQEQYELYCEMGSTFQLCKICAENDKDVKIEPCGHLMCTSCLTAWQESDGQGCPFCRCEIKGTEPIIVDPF
Sequence of c-Cbl (P22681 47-435): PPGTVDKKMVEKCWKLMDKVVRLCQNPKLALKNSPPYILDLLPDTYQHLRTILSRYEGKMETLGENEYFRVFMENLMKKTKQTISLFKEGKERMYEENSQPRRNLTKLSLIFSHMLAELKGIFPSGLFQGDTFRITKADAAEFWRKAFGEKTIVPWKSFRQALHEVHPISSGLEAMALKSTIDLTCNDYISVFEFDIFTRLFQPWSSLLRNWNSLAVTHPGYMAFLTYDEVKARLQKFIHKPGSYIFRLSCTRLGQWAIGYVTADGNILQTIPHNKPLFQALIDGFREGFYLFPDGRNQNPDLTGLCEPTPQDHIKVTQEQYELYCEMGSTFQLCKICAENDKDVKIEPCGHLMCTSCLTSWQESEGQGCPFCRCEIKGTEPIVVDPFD

Compound | IC50 (c-Cbl) [µM] | IC50 (Cbl-b) [nM] | fold-selectivity (Cbl-b over C-cbl) (Cbl-b) | IC50 (Cbl-b; Example 121) [nM] | (fold-selectivity) Cbl-b and C-Cbl Selectivity (Cbl-b) [x]
Cn1cnnc1[C@](C)(O)c1cccc(N2Cc3c(cc(CNC4(C)CCC4)cc3C(F)(F)F)C2=O)c1 [Compound 305, (R)-2-(3-(1-hydroxy-1-(4-methyl-4H-1,2,4-triazol-3-yl)ethyl)phenyl)-6-(((1-methylcyclobutyl)amino)methyl)-4-(trifluoromethyl)isoindolin-1-one] | 20 | ≥ 20000 | 1.0x |  | 
CC(=O)N1CC([C@H](c2cccc(N3Cc4c(cc(CNC5(C)CCC5)cc4C(F)(F)F)C3=O)c2)c2nncn2C)C1 (single isomer, unassigned) [Compound 401] | 13 | 8500 | 1.6 x |  | 
Cn1cnnc1[C@@H](c1cccc(N2Cc3c(cc(CNC4(C)CCC4)cc3C(F)(F)F)C2=O)c1)N1CCC1 (single isomer, unassigned) [Compound 33] | 0.72 | 150 | (4.8x) |  | 
Cn1cnnc1[C@@H](C[C@H]1COCCO1)c1cccc(N2Cc3c(cc(CNC4(C)CCC4)cc3C(F)(F)F)C2=O)c1 (single isomer, unassigned) [Compound 295] | 20 |  | 1.0x |  | 
Cn1cnnc1[C@@H](c1cccc(N2Cc3c(cc(CN[C@H]4[C@@H]5COC[C@@H]54)cc3C(F)(F)F)C2=O)c1)C1COC1 (single isomer, unassigned) [Compound 472] | 0.042 |  |  | 13 | 3.2
Cn1cnnc1[C@H](c1ccccc1)c1cccc(N2Cc3c(Cl)cc(CNC4(C)CCC4)cc3C2=O)c1 (single isomer, unassigned) [Compound 158] | 5 | 1400 | 3.6 x |  | 
Cn1cnnc1[C@H](c1cccc(N2Cc3c(cc(CNC4(C)CCC4)cc3C(F)(F)F)C2=O)c1)C1COC1 (single isomer, unassigned) [Compound 165] | 10 | 3900 | 2.3 x |  | 
CO[C@H](c1cccc(N2Cc3c(cc(CNC4(C)CCC4)cc3C(F)(F)F)C2=O)c1)c1nncn1C (single isomer, unassigned) [Compound 42] | 0.27 | 180 | (1.5x) |  | 
Cn1cnnc1[C@](O)(c1cccc(N2Cc3c(cc(CNC4(C)CCC4)cc3C(F)(F)F)C2=O)c1)C1CCC1 (single isomer, unassigned) [Compound 1] | 14.1 | 8300 | (1.7x) |  | 
CO[C@H]1C[C@](c2cccc(N3Cc4c(cc(CN5CCCCC5)cc4C(F)(F)F)C3=O)c2)(c2nncn2C)C1 [Compound 420, 2-(3-((1r,3r)-3-methoxy-1-(4-methyl-4H-1,2,4-triazol-3-yl)cyclobutyl)phenyl)-6-(piperidin-1-ylmethyl)-4-(trifluoromethyl)isoindolin-1-one] | 0.72 |  |  | 100 | 7.2
CC(=O)N1CC2(C1)CC(c1cccc(N3Cc4c(cc(CNC5(C)CCC5)cc4C(F)(F)F)C3=O)c1)(c1nncn1C)C2 [Compound 97, 2-(3-(2-acetyl-6-(4-methyl-4H-1,2,4-triazol-3-yl)-2-azaspiro[3.3]heptan-6-yl)phenyl)-6-(((1-methylcyclobutyl)amino)methyl)-4-(trifluoromethyl)isoindolin-1-one] | 16 | 5200 | 3.1x |  | 
Cn1cnnc1[C@]1(c2cccc(N3Cc4c(cc(CNC5(C)CCC5)cc4C(F)(F)F)C3=O)c2)C[C@@H](S(C)(=O)=O)C1 [Compound 325, 2-(3-((1r,3r)-1-(4-methyl-4H-1,2,4-triazol-3-yl)-3-(methylsulfonyl)cyclobutyl)phenyl)-6-(((1-methylcyclobutyl)amino)methyl)-4-(trifluoromethyl)isoindolin-1-one] | 20 | 11000 | 1.9x |  | 
Cn1cnnc1[C@H](c1cccc(N2Cc3c(cc(CNC4(C)CCC4)cc3C(F)(F)F)C2=O)c1)N1CC(F)(F)C1 (single isomer, unassigned) [Compound 56] | 6.7 | 1000 | (6.7x) |  | 
Cn1cnnc1[C@@H](c1cccc(N2Cc3c(cc(CNC4(C)CCC4)cc3C(F)(F)F)C2=O)c1)C1CCCCC1 [Compound 250, (R)-2-(3-(cyclohexyl(4-methyl-4H-1,2,4-triazol-3-yl)methyl)phenyl)-6-(((1-methylcyclobutyl)amino)methyl)-4-(trifluoromethyl)isoindolin-1-one] | 3.6 | 3100 | 1.2x |  | 
Cn1cnnc1[C@]1(c2cccc(N3Cc4c(cc(CNC5(C)CCC5)cc4C(F)(F)F)C3=O)c2)C[C@](F)(CF)C1 [Compound 105, 2-(3-((1r,3r)-3-fluoro-3-(fluoromethyl)-1-(4-methyl-4H-1,2,4-triazol-3-yl)cyclobutyl)phenyl)-6-(((1-methylcyclobutyl)amino)methyl)-4-(trifluoromethyl)isoindolin-1-one] | 0.054 | 15 | 3.7x |  | 
CO[C@@H](c1cccc(N2Cc3c(cc(CNC4(C)CCC4)cc3C(F)(F)F)C2=O)c1)c1nncn1C (single isomer, unassigned) [Compound 43] | 0.56 | 470 | (1.2x) |  | 
CC(=O)N(C)[C@@H](c1cccc(N2Cc3c(cc(CNC4(C)CCC4)cc3C(F)(F)F)C2=O)c1)c1nncn1C (single isomer, unassigned) [Compound 400] | 20 | ≥ 20000 | 1.0x |  | 
Cn1cnnc1[C@](F)(c1ccccc1)c1cccc(N2Cc3c(Cl)cc(CNC4(C)CCC4)cc3C2=O)c1 (single isomer, unassigned) [Compound 321] | 20 | ≥ 20000 | 1.0x |  | 
Cn1cnnc1[C@@H](CC1(C)COC1)c1cccc(N2Cc3c(cc(CNC4(C)CCC4)cc3C(F)(F)F)C2=O)c1 [Compound 255, (S)-2-(3-(1-(4-methyl-4H-1,2,4-triazol-3-yl)-2-(3-methyloxetan-3-yl)ethyl)phenyl)-6-(((1-methylcyclobutyl)amino)methyl)-4-(trifluoromethyl)isoindolin-1-one] | 0.99 | 760 | 1.3x |  | 
CO[C@H]1C[C@@](c2cc(C)cc(N3Cc4c(cc(CNC5(C)CCC5)cc4C(F)(F)F)C3=O)c2)(c2nncn2C)C1 [Compound 237, 2-(3-((1s,3s)-3-methoxy-1-(4-methyl-4H-1,2,4-triazol-3-yl)cyclobutyl)-5-methylphenyl)-6-(((1-methylcyclobutyl)amino)methyl)-4-(trifluoromethyl)isoindolin-1-one] | 0.39 | 340 | 1.2x |  | 
Cn1cnnc1[C@H](c1cccc(N2Cc3c(cc(CNC4(C)CCC4)cc3C(F)(F)F)C2=O)c1)C1CCS(=O)(=O)CC1 [Compound 300, (S)-2-(3-((1,1-dioxidotetrahydro-2H-thiopyran-4-yl)(4-methyl-4H-1,2,4-triazol-3-yl)methyl)phenyl)-6-(((1-methylcyclobutyl)amino)methyl)-4-(trifluoromethyl)isoindolin-1-one] | 17 | 8700 | 2.0x |  | 
Cn1cnnc1C(F)(c1cccc(N2Cc3c(cc(CNC4(C)CCC4)cc3C(F)(F)F)C2=O)c1)C1COC1 (single isomer, unassigned) [Compound 151] | 7.9 | 3800 | 2.1x |  | 
CO[C@H]1C[C@](O)(C(c2cccc(N3Cc4c(cc(CNC5(C)CCC5)cc4C(F)(F)F)C3=O)c2)c2nncn2C)C1 (single isomer, unassigned) [Compound 367] | 12 | 7100 | 1.7x |  | 
Cn1cnnc1[C@]1(c2cccc(N3Cc4c(cc(CNC5(C)CCC5)cc4C(F)(F)F)C3=O)c2)C[C@@H]([S@@+](C)[O-])C1 (single isomer, unassigned) [Compound 163] | 20 | ≥ 20000 | 1.0x |  | 
Cn1cnnc1C(c1cccc(N2Cc3c(cc(CNC4(C)CCC4)cc3C(F)(F)F)C2=O)c1)[C@H]1C[C@H](Cl)C1 (single isomer, unassigned) [Compound 355] | 2 | 150 | 13x |  | 
Cn1cnnc1[C@H](CC1CCS(=O)(=O)CC1)c1cccc(N2Cc3c(cc(CNC4(C)CCC4)cc3C(F)(F)F)C2=O)c1 [Compound 286, (R)-2-(3-(2-(1,1-dioxidotetrahydro-2H-thiopyran-4-yl)-1-(4-methyl-4H-1,2,4-triazol-3-yl)ethyl)phenyl)-6-(((1-methylcyclobutyl)amino)methyl)-4-(trifluoromethyl)isoindolin-1-one] | 20 | ≥ 20000 | 1.0x |  | 
Cn1cnnc1C(c1cccc(N2Cc3c(cc(CNC4(C)CCC4)cc3C(F)(F)F)C2=O)c1)[C@H]1C[C@@H](Cl)C1 (single isomer, unassigned) [Compound 354] | 0.58 | 70 | 8.3x |  | 
Cn1cnnc1[C@@H](c1cccc(N2Cc3c(cc(CNC4(C)CCC4)cc3C(F)(F)F)C2=O)c1)C1CC2(COC2)C1 [Compound 122, (R)-2-(3-((4-methyl-4H-1,2,4-triazol-3-yl)(2-oxaspiro[3.3]heptan-6-yl)methyl)phenyl)-6-(((1-methylcyclobutyl)amino)methyl)-4-(trifluoromethyl)isoindolin-1-one] | 2.1 | 1400 | 1.6x |  | 
